Experimental data: patent publication US10543250B2, “Antimicrobial fusion peptides” (Los Angeles Biomedical Research Institute at Harbor-UCLA …, priority 2015, dated 2020)
Entries after “also recorded” stand apart in the source; their conditions may differ.

Columns and labels:
[1] = system: MDRAB clinical isolate HUMC-1; test: Neutropenic murine model of MDRAB pneumonia; assay type: in vivo, Acinetobacter baumannii; details: for survival: neutropenic mice, aerosolized MDRAB HUMC-1, treatment for 3d, survival monitored to day 21, peptide 12.5 mg/kg IV qd, imipenem 15 mg/kg IP bid
Experimental: Neutropenic mice (cortisone acetate [250 mg/kg; subQ]+cyclophosphamide [200 mg/kg; IP] on study days-2, +3, and +8) were infected on day 0 (aerosolized; MDRAB clinical isolate HUMC-1; 5×10^8 CFU; lung Cx-positive). Treatment initiated 4 hr or 24 hr post-infection and continued for 3d. Groups:control (PBS); imipenem (15 mg/kg; IP; bid); γ-RP-1 (12.5 mg/kg; IV; qd); γ-RP-1 (12.5 mg/kg; IV; qd). Survival was then monitored to day 21. At end point or 21d, lungs and spleens were cultured. Outcomes were compared by non-parametric analysis. All studies adhered to institutional and AAALAC animal care policies.

MDRAB = test: Biomatrix assay: efficacy in human blood, plasma or serum; assay type: cell-based, Acinetobacter baumannii; details: human blood ex vivo
Experimental: Efficacies of RP-1 and γ-RP-1 in human blood, plasma, or serum were assessed. Peptide was added to biomatrix simultaneously with MDRAB (final inoculum 10^5 CFU/ml; peptide range […]; volume 100 μl). Controls were performed using Mueller Hinton broth (MHB; CLSI). Following incubation (constant agitation; 2 h, 37° C.), survival was quantified by culture (n=3) upon blood agar and defined as CFU/ml. Independent minimum, n=2.

[2] = system: wide panel of Gram-negative human pathogens; test: Efficacy against panel of Gram-negative human pathogens at pH 5.5 and 7.5 (Example 4); assay type: cell-based; details: compared to any other peptide tested
Experimental: The efficacy of RP-1 and γ-RP-1, along with a number of peptide variants and suitable control, was tested against a wide panel of Gram-negative human pathogens.

3D7 P. falciparum = test: In vitro antimalarial activity; assay type: cell-based; details: at 12.5 mg/ml after incubation for 96 hour
[3] = system: P. berghei ANKA luciferase; test: In vivo antimalarial efficacy in infected mice; details: 12.5 mg/kg, IV treatment daily for 5 days, compared to chloroquine at the same concentration
Excerpt: FIGS. 15 and 16 show the in vivo antimalarial activity of γ-RP-1 on Luciferase-expressing P. berghei ANKA (FIG. 15: single dose; FIG. 16: double dose). CQ: chloroquine.

[4] = system: wide panel of human pathogens; test: Efficacy of γ-RP-1 variants against panel of human pathogens at pH 5.5 and 7.5 (Example 6); assay type: cell-based; details: pH 5.5 and 7.5, FIG. 16A-B
Experimental: The efficacy of RP-1 and γ-RP-1, along with a number of peptide variants and suitable control, was tested against a wide panel of human pathogens.
In another experiments, the following peptides were tested.

Peptide pI = assay type: physicochemical
Experimental: Antimicrobial agents: RP-1 (pI/Mw: 10.82/2162.78 Da) is an 18-amino synthetic peptide derived from PF-4 family kinocidins. γ-RP-1 (pI/Mw: 10.64/4444.5 Da) is a 39-amino synthetic peptide comprising a CXCL4 kinocidin γ-core motif-RP-1 construct. Stock peptides dissolved in sterile ddH2O were diluted in suitable buffers. Antibiotics were purchased as purified powder and re-suspended in PBS per the manufacturer guidelines.

Molecule	survival [1] [%]	Total MDRAB burden (CFU) in lungs and spleens, reduction ([1]; as compared to control or imipenem treatments alone) [log CFU]	efficacy vs. MDRAB in a murine model of neutropenic pneumonia ([1]; in vivo)	efficacy in human blood (MDRAB)	efficacy against individual organisms and across the broader panel [2]	in vitro antimalarial effects, dose-response curve (3D7 P. falciparum)	antimalarial activity in vivo [3]	efficacy compared with RP-1 across bacterial species [4]	pI (Peptide pI)
C[C@@H](O)[C@H]1C(=O)N2C(C(=O)O)=C(SCCN=CN)C[C@H]12 [imipenem, reference compound]	16								
γ-RP-1 (CPTAQLIATLKNGRKICLDLQALYKKFKKKLLKSLKRLG)	72	> 2	significant efficacy	significant efficacy; also recorded: greater efficacy	overall best efficacy	excellent IC50 curve	moderate antimalarial activity	higher efficacy than RP-1	10.64
